Here are results for nine compounds from patent US20240376097A1, “BCL-2 Inhibitor” (BeiGene Ltd., priority 2020, published 2024).

Each structure is given as a SMILES string. pIC50: −log10 of the molar value. Read-outs that look alike come from different tables or passages of the source.

Common to all, as to type: binding
Test [1] has as its target recombinant human Bcl-2 D103Y protein (Homo sapiens (Human), UniProt P10415, D103Y). In words: Bcl-2-D103Y Biochemical Assay (TR-FRET). To be noted: for pIC50: TR-FRET, FITC labeled Bak peptide; for Ratio of Bcl-2 D103Y/Bcl-2 WT: ratio of IC50. The method, then:
Biological Example: Bcl-2-D103Y Biochemical Assay
[…]. The TR-FRET signals (ex337 nm, em490 nm/520 nm) were read on BMG PHERAstar FSX instrument. The inhibition percentage of Bcl-2 D103Y interaction with its ligand in presence of increasing concentrations of compounds was calculated based on the ratio of fluorescence at 490 nm to that at 520 nm. The IC50 for each compound was derived from fitting the data to the four-parameter logistic equation by Dotmatics.
In general terms: Time-resolved FRET reads energy transfer from a long-lived donor to a nearby acceptor.

The target in test [2] is Recombinant human Bcl-2 protein (Homo sapiens (Human), UniProt P10415). In words: Bcl-2 TR-FRET Assay. The method, then: Biological Example: Bcl-2 TR-FRET Assay
Compounds disclosed herein were tested for blocking of Bcl-2 protein with its ligand in an assay based on Time-Resolved Fluorescence Resonance Energy Transfer (TR-FRET) methodology. Recombinant human 0.05 nM Bcl-2 protein was pre-incubated with a serial dilution of compounds disclosed herein (top final concentration is 1 uM or 0.1 uM or 0.02 uM or 0.01 uM, 10 points) at room temperature for 0.5 hour in an assay buffer containing 20 mM potassium phosphate buffer, pH 7.5, 50 mM NaCl. 1 mM EDTA, 0.05% Tween-20, 0.01% BSA. Then the FITC labeled Bak peptide Ac-GQVGRQLAIIGDK(FITC)INR-amide (0.5 nM) and MAb Anti 6His Tb cryptate Gold were added to plate and further incubated at room temperature for 1 hour. The TR-FRET signals (337 nm-520 nm-490 nm) were read on BMG PHERAstar FSX instrument. The inhibition percentage of Bcl-2 interaction with its ligand in presence of increasing concentrations of compounds was calculated based on the TR-FRET signals. The IC50 for each compound was derived from fitting the data to the four-parameter logistic equation by Graphpad Prism software or Dotmatics.

Test [3] deals with recombinant human Bcl-2-G101V protein. In words: Bcl-2-G101V TR-FRET Assay. The following applies: ratio of biochemical IC50 Bcl-2 G101V / Bcl-2 WT. The method, then:
(§1) Biological Example: Bcl-2-G101V TR-FRET Assay
(§2) […]. The TR-FRET signals (ex337 nm, em490 nm/520 nm) were read on BMG PHERAstar FSX instrument. The inhibition percentage of Bcl-2-G101V interaction with its ligand in presence of increasing concentrations of compounds was calculated based on the ratio of fluorescence at 490 nm to that at 520 nm. The IC50 for each compound was derived from fitting the data to the four-parameter logistic equation by Graphpad Prism software or Dotmatics.

The target in test [4] is recombinant human Bcl-2-G101V protein (Homo sapiens (Human), UniProt P10415, G101V). Kind of test: Bcl-2-G101V TR-FRET Assay. To be noted: Bcl-2 G101V mutant, TR-FRET; read-out: Biochemical assay (IC50, nM) Bcl-2 G101V. The method, then: as §1, §2
Where [5] appears, read: Bcl-2 wild type, TR-FRET, read-out: Biochemical assay (IC50, nM) Bcl-2 WT.
Where [6] appears, read: wild type Bcl-2, unit inferred, read-out: Bcl-2 WT.

A word on the pIC50: it is the negative decadic logarithm of the IC50, by convention in mol/L. For `CC(C)c1ccccc1C1CN(Cc2ccc(OC(F)(F)F)cc2)CCN1C1CC2(CCN(c3ccc(C(=O)NS(=O)(=O)c4ccc(NC[C@H]5CC[C@](C)(O)CC5)c([N+](=O)[O-])c4)c(Oc4cnc5[nH]ccc5c4)c3)CC2)C1` (some centres unmarked) [Example 39, 2-((1H-pyrrolo[2,3-b]pyridin-5-yl)oxy)-N-((4-((((1r,4r)-4-hydroxy-4-methylcyclohexyl)methyl)amino)-3-nitrophenyl)sulfonyl)-4-(2-(2-(2-isopropylphenyl)-4-(4-(trifluoromethoxy)benzyl)piperazin-1-yl)-7-azaspiro[3.5]nonan-7-yl)benzamide], the pIC50 in test [1] was 8.42. In addition, the “Ratio of Bcl-2 D103Y/Bcl-2 WT” value in test [1] is on record as 3.5. The IC50 in test [2] (setting [5]) worked out at 1.1 nM; in test [2] (setting [6]) it was 1.1 nM; in test [4], 6.7 nM. Moreover, the “Ratio of Bcl-2 G101V/WT” value in test [3] came to 6.1.

For `COc1ccc(CN2CCN(C3CC4(CCN(c5ccc(C(=O)NS(=O)(=O)c6ccc(NCC7(F)CCC(C)(O)CC7)c([N+](=O)[O-])c6)c(Oc6cnc7[nH]ccc7c6)c5)CC4)C3)[C@H](c3ccccc3C(C)C)C2)cc1` (stereo partly drawn) [Example 226, (R)-2-((1H-pyrrolo[2,3-b]pyridin-5-yl)oxy)-N-((4-(((1-fluoro-4-hydroxy-4-methylcyclohexyl)methyl)amino)-3-nitrophenyl)sulfonyl)-4-(2-(2-(2-isopropylphenyl)-4-(4-methoxybenzyl)piperazin-1-yl)-7-azaspiro[3.5]nonan-7-yl) benzamide], the pIC50 in test [1] is 9.80. In test [1], the “Ratio of Bcl-2 D103Y/Bcl-2 WT” value came to 1. Besides, the figures for the IC50 in test [2] (setting [5]), in test [2] (setting [6]) and in test [4] were 0.17 nM, 0.17 nM and 0.64 nM, respectively. Further, the “Ratio of Bcl-2 G101V/WT” value in test [3] amounted to 3.9.

With `COc1cc(CN2CCN(C3CC4(CCN(c5ccc(C(=O)NS(=O)(=O)c6ccc(NC[C@H]7CC[C@](C)(O)CC7)c([N+](=O)[O-])c6)c(Oc6cnc7[nH]ccc7c6)c5)CC4)C3)[C@H](c3ccccc3C(C)C)C2)cc2c1OCC2(C)C` [Example 286, 2-((1H-pyrrolo[2,3-b]pyridin-5-yl)oxy)-N-((4-((((1r,4r)-4-hydroxy-4-methylcyclohexyl)methyl)amino)-3-nitrophenyl)sulfonyl)-4-(2-((R)-2-(2-isopropylphenyl)-4-((7-methoxy-3,3-dimethyl-2,3-dihydrobenzofuran-5-yl)methyl)piperazin-1-yl)-7-azaspiro[3.5]nonan-7-yl)benzamide], the negative logarithm of the IC50 (pIC50) in test [1] is 9.72. Further, in test [1], the “Ratio of Bcl-2 D103Y/Bcl-2 WT” value came to 1.9. For the same compound, the IC50 in test [2] (setting [5]) came out at 0.1 nM; in test [2] (setting [6]) it was 0.1 nM; in test [4], 0.48 nM. The “Ratio of Bcl-2 G101V/WT” value in test [3] is 4.8.

Take `COc1cc(CN2CCN(C3CC4(C3)CN(c3ccc(C(=O)NS(=O)(=O)c5ccc(NC[C@H]6CC[C@](C)(O)CC6)c([N+](=O)[O-])c5)c(Oc5cnc6[nH]cc(F)c6c5)c3)C4)[C@H](c3ccccc3C(C)C)C2)ccc1C(F)(F)F` [Example 289, 2-((3-fluoro-1H-pyrrolo[2,3-b]pyridin-5-yl)oxy)-N-((4-((((1r,4r)-4-hydroxy-4-methylcyclohexyl)methyl)amino)-3-nitrophenyl)sulfonyl)-4-(6-((R)-2-(2-isopropylphenyl)-4-(3-methoxy-4-(trifluoromethyl)benzyl)piperazin-1-yl)-2-azaspiro[3.3]heptan-2-yl) benzamide]: the figures for the IC50 in test [2] (setting [5]) and in test [4] were 1.7 nM and 4 nM, respectively. The “Ratio of Bcl-2 G101V/WT” value in test [3] was 2.3.

As to `COc1cc(CN2CCN(C3CC4(CCN(c5ccc(C(=O)NS(=O)(=O)c6ccc(NC[C@H]7CC[C@](C)(O)CC7)c([N+](=O)[O-])c6)c(Oc6cnc7[nH]ccc7c6)c5)CC4)C3)[C@H](c3ccccc3C(C)C)C2)ccc1CC(C)C` [Example 293], the IC50 in test [2] (setting [5]) was 3.2 nM; in test [4] it was 11 nM. The “Ratio of Bcl-2 G101V/WT” value in test [3] came to 3.4.

For `COc1cc(CN2CCN(C3CC4(CCN(c5ccc(C(=O)NS(=O)(=O)c6ccc(NC[C@H]7CC[C@](C)(O)CC7)c([N+](=O)[O-])c6)c(Oc6cnc7[nH]ccc7c6)c5)CC4)C3)[C@H](c3ccccc3C(C)C)C2)ccc1C1CCCC1` [Example 294, 2-((1H-pyrrolo[2,3-b]pyridin-5-yl)oxy)-4-(2-((R)-4-(4-cyclopentyl-3-methoxybenzyl)-2-(2-isopropylphenyl)piperazin-1-yl)-7-azaspiro[3.5]nonan-7-yl)-N-((4-((((1r,4r)-4-hydroxy-4-methylcyclohexyl)methyl)amino)-3-nitrophenyl)sulfonyl)benzamide], the results for the IC50 in test [2] (setting [5]) and in test [4] were 3.2 nM and 10 nM, respectively. For the same compound, the “Ratio of Bcl-2 G101V/WT” value in test [3] is 3.2.

For `CNc1ccc(CN2CCN(C3CC4(C3)CN(c3ccc(C(=O)NS(=O)(=O)c5ccc(NC[C@H]6CC[C@](C)(O)CC6)c([N+](=O)[O-])c5)c(Oc5cnc6[nH]cc(F)c6c5)c3)C4)[C@H](c3ccccc3C(C)C)C2)cc1OC` [Example 358, 2-((3-fluoro-1H-pyrrolo[2,3-b]pyridin-5-yl)oxy)-N-((4-((((1r,4r)-4-hydroxy-4-methylcyclohexyl)methyl)amino)-3-nitrophenyl)sulfonyl)-4-(6-((R)-2-(2-isopropylphenyl)-4-(3-methoxy-4-(methylamino)benzyl)piperazin-1-yl)-2-azaspiro[3.3]heptan-2-yl) benzamide], the negative-log IC50 (pIC50) in test [1] is 9.96. For the same compound, in test [1], the “Ratio of Bcl-2 D103Y/Bcl-2 WT” value came out at 1.1. For the same compound, the IC50 in test [2] (setting [5]) came to 0.1 nM; in test [2] (setting [6]), 0.1 nM; in test [4], 0.24 nM. The “Ratio of Bcl-2 G101V/WT” value in test [3] was 2.4.

Consider `CC(C)c1ccccc1[C@@H]1CN(Cc2ccc(C3CCOCC3)cc2)CCN1C1CC2(C1)CN(c1ccc(C(=O)NS(=O)(=O)c3ccc(NC[C@H]4CC[C@](C)(O)CC4)c([N+](=O)[O-])c3)c(Oc3cnc4[nH]cc(F)c4c3)c1)C2` [Example 370, 2-((3-fluoro-1H-pyrrolo[2,3-b]pyridin-5-yl)oxy)-N-((4-((((1r,4r)-4-hydroxy-4-methylcyclohexyl)methyl)amino)-3-nitrophenyl)sulfonyl)-4-(6-((R)-2-(2-isopropylphenyl)-4-(4-(tetrahydro-2H-pyran-4-yl)benzyl)piperazin-1-yl)-2-azaspiro[3.3]heptan-2-yl) benzamide], for which the results for the IC50 in test [2] (setting [5]) and in test [4] were 0.18 nM and 0.67 nM, respectively. Besides, in test [3], the “Ratio of Bcl-2 G101V/WT” value came out at 3.7.

For the compound `CC(C)c1ccccc1[C@@H]1CN(Cc2ccc(C3CCOC3)cc2)CCN1C1CC2(C1)CN(c1ccc(C(=O)NS(=O)(=O)c3ccc(NCC4CCC(C)(O)CC4)c([N+](=O)[O-])c3)c(Oc3cnc4[nH]cc(F)c4c3)c1)C2` (stereo partly drawn) [Example 371, 2-((3-fluoro-1H-pyrrolo[2,3-b]pyridin-5-yl)oxy)-N-((4-((((1r,4r)-4-hydroxy-4-methylcyclohexyl)methyl)amino)-3-nitrophenyl)sulfonyl)-4-(6-((2R)-2-(2-isopropylphenyl)-4-(4-(tetrahydrofuran-3-yl)benzyl)piperazin-1-yl)-2-azaspiro[3.3]heptan-2-yl)benzamide], in test [1], the pIC50 was 9.51 and the “Ratio of Bcl-2 D103Y/Bcl-2 WT” value is on record as 2.6. For the same compound, in test [2] (setting [5]), the IC50 stood at 0.12 nM. Also, in test [3], the “Ratio of Bcl-2 G101V/WT” value was 2.7. Besides, the IC50 in test [4] worked out at 0.32 nM.
